# Tested on: HSVEC
# Assay: (§1) Inhibitory activity against tumor necrosis factor-alpha (TNF-alpha) induced vascular cell adhesion molecule-1 (VCAM-1) in human endothelial cells
# Assay type: functional, cell-based
row,Compound,IC50
1,CCCCCCCCCOCC/C=C\CCCCCCC(=O)O,45 nM
2,CCCCCCCCC1OC1C/C=C\CCCCCCC(=O)O (stereo in doubt; 9),60 nM

# Tested on: HSVEC
# Assay: as §1
# Assay type: functional
row,Compound,Inhibition
1,CCCCCCCCC1OC1C/C=C\CCCCCCC(=O)O (stereo in doubt; 21),1%
2,CCCCCCCCC1OC1C/C=C\CCCCCCC(=O)NS(=O)(=O)c1ccccc1 (centres undefined),33%
3,CCCCCCCC[C@@H]1O[C@@H]1C/C=C\CCCCC(=O)O,17%
4,CCCCCCCCCOCC/C=C\CCCCCCC(=O)O,48%
5,CCCCCCCCCCC1OC1C/C=C\CCCCCCC(=O)O (centres undefined),-1%
6,CCCCCCCCC1OC1C/C=C\CCCCCCC(=O)NS(C)(=O)=O (stereo in doubt; 29),29%
7,CCCCC/C=C\CC1OC1C/C=C\CCCCCCC(=O)O (centres undefined),10%
8,CCCCCCCCC1OC1C/C=C\CCCCCCC(=O)O (stereo in doubt; 11),58%
9,CCCCCCCCc1cocc1C/C=C\CCCCCCC(=O)O,50%
10,O=C(O)CCCCCC/C=C\CCOCCCCCCCCCOc1ccc(I)cc1,52%
11,CCCCCCCCC1OC1CC/C=C\CCCCCC(=O)O (centres undefined),13%
12,CCCCC/C=C\C[C@H]1O[C@H]1C/C=C\C/C=C\CCCC(=O)O,31%
13,CCCCC/C=C\CC1OC1CCCCCCCCCC(=O)O (centres undefined),13%
14,CCCCC/C=C\CC1OC1CCCC/C=C\CCCC(=O)O (centres undefined),30%
15,CCCCCCCC[C@H]1O[C@H]1C/C=C\CCCCC(=O)O,13%
16,CCCCCCCCC1SC1C/C=C\CCCCCCC(=O)O (stereo in doubt; 16),26%

row,Compound,Inhibition
1,CCCCCCCCC1OC1CC#CCCCCCCC(=O)O (centres undefined),28%
2,CC(=O)NCCCCCCCCCOCC/C=C\CCCCCCC(=O)O,63%
3,CCCCCCCCC1OC1C/C=C\CCCCCCC(=O)O (stereo in doubt; 9),69%
4,O=C(O)CCCCCC/C=C\CC1OC1CCCCCCCCO (centres undefined),36%
5,CCCCCCCCC1OC1C/C=C\CCCCCCCO (centres undefined),32%
6,CCCCCCCCC1CC1C/C=C\CCCCCCC(=O)O (centres undefined),31%
7,CCCCCCCCC1SC1C/C=C\CCCCCCC(=O)O (stereo in doubt; 15),49%
8,CCCCCCCCC1OC1CCCCCCCCCC(=O)O (centres undefined),36%
9,CCCCCCCCC1OC1CCCC/C=C\CCCC(=O)O (centres undefined),31%
10,CCCCC/C=C\CC1OC1C/C=C\C/C=C\CCCC(=O)O (centres undefined),39%
11,CCCCCCCCCOCC/C=C\CCCCCCC(=O)NS(C)(=O)=O,1%
12,CCCCC/C=C\C[C@@H]1O[C@@H]1C/C=C\C/C=C\CCCC(=O)O,35%
13,CCCCCCCCC1OC1C/C=C\CCCCCCC(=O)NS(C)(=O)=O (stereo in doubt; 30),31%
14,CCCCCCCCC1OC1C/C=C\CCCCOCC(=O)O (centres undefined),3%
15,CCCCC/C=C\CC1SC1C/C=C\C/C=C\CCCC(=O)O (centres undefined),65%
16,O=C(O)CCCCCC/C=C\CCOCCCCCCCCCO,27%

# From ChEMBL document CHEMBL1136359, “11,12-epoxyeicosatrienoic acid (11,12-EET): structural determinants for inhibition of TNF-alpha-induced VCAM-1 expression” (Bioorg Med Chem Lett, 2003)
